Data taken from PubChem BioAssay (NCI).
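How tested: cells in 96-well plates exposed to compound for 48 hours at five concentrations. Definition used: TGI = concentration required for complete inhibition of growth.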

Legend:
Assay in all cases: inhibition of tumour cell growth, NCI panel, 48 h
EKVX NSCLC = tested on: EKVX NSCLC
UACC-62 melanoma = tested on: UACC-62 melanoma
SK-OV-3 ovarian = tested on: SK-OV-3 ovarian
SNB-75 CNS = tested on: SNB-75 CNS
NCI-H522 lung = tested on: NCI-H522 lung
SR leukemia = tested on: SR leukemia
UO-31 renal = tested on: UO-31 renal
BT-549 breast = tested on: BT-549 breast
NCI-H23 lung = tested on: NCI-H23 lung
SF-268 CNS = tested on: SF-268 CNS
HT29 colon = tested on: HT29 colon
SF-539 CNS = tested on: SF-539 CNS
NCI/ADR-RES ovarian = tested on: NCI/ADR-RES ovarian
OVCAR-3 ovarian = tested on: OVCAR-3 ovarian
LOX IMVI melanoma = tested on: LOX IMVI melanoma
TK-10 renal = tested on: TK-10 renal
MOLT-4 leukemia = tested on: MOLT-4 leukemia
MALME-3M melanoma = tested on: MALME-3M melanoma

COC(=O)/C=C/CCC#Cc1ccccc1C#CCC/C=C/C(=O)OC
TGI (EKVX NSCLC): > 100 µM | TGI (UACC-62 melanoma): > 100 µM | TGI (SK-OV-3 ovarian): > 100 µM | TGI (SNB-75 CNS): 19 µM | TGI (NCI-H522 lung): 18.6 µM | TGI (SR leukemia): > 100 µM | TGI (UO-31 renal): > 100 µM | TGI (BT-549 breast): > 100 µM | TGI (NCI-H23 lung): 42.9 µM | TGI (SF-268 CNS): > 100 µM | TGI (HT29 colon): 40.4 µM | TGI (SF-539 CNS): 30.9 µM | TGI (NCI/ADR-RES ovarian): 66.2 µM | TGI (OVCAR-3 ovarian): 28.2 µM | TGI (LOX IMVI melanoma): 64 µM | TGI (TK-10 renal): > 100 µM | TGI (MOLT-4 leukemia): 10.5 µM | TGI (MALME-3M melanoma): > 100 µM

Cc1cc(N2CCOCC2)nc2ccc(Cc3ccc4nc(N5CCOCC5)cc(C)c4c3)cc12
TGI (EKVX NSCLC): > 100 µM | TGI (UACC-62 melanoma): > 100 µM | TGI (SK-OV-3 ovarian): > 100 µM | TGI (SNB-75 CNS): > 100 µM | TGI (NCI-H522 lung): > 100 µM | TGI (SR leukemia): > 100 µM | TGI (UO-31 renal): > 100 µM | TGI (BT-549 breast): > 100 µM | TGI (NCI-H23 lung): > 100 µM | TGI (SF-268 CNS): > 100 µM | TGI (HT29 colon): 49.3 µM | TGI (SF-539 CNS): 71.3 µM | TGI (NCI/ADR-RES ovarian): > 100 µM | TGI (OVCAR-3 ovarian): > 100 µM | TGI (LOX IMVI melanoma): > 100 µM | TGI (TK-10 renal): > 100 µM | TGI (MOLT-4 leukemia): > 100 µM | TGI (MALME-3M melanoma): > 100 µM

O=S1SC(=S)C2C=CC=NC21 (stereo not given)
TGI (EKVX NSCLC): 26.1 µM | TGI (UACC-62 melanoma): 40.2 µM | TGI (SK-OV-3 ovarian): > 100 µM | TGI (SNB-75 CNS): 34.9 µM | TGI (NCI-H522 lung): 53 µM | TGI (SR leukemia): 77.7 µM | TGI (UO-31 renal): 28.4 µM | TGI (BT-549 breast): 33.9 µM | TGI (NCI-H23 lung): 43.1 µM | TGI (SF-268 CNS): 44.6 µM | TGI (HT29 colon): 30.8 µM | TGI (SF-539 CNS): 33.3 µM | TGI (NCI/ADR-RES ovarian): 67.5 µM | TGI (OVCAR-3 ovarian): 56.2 µM | TGI (LOX IMVI melanoma): 32.7 µM | TGI (TK-10 renal): 32.2 µM | TGI (MOLT-4 leukemia): 64.9 µM | TGI (MALME-3M melanoma): 36.3 µM

Cc1ccc(Sc2ccccc2C23OC(C)(C4C(=O)N(c5ccccc5)C(=O)C42)N(C)C3=O)cc1 (stereo not given)
TGI (EKVX NSCLC): > 100 µM | TGI (UACC-62 melanoma): > 100 µM | TGI (SK-OV-3 ovarian): > 100 µM | TGI (SNB-75 CNS): > 100 µM | TGI (NCI-H522 lung): > 100 µM | TGI (SR leukemia): > 100 µM | TGI (UO-31 renal): > 100 µM | TGI (BT-549 breast): > 100 µM | TGI (NCI-H23 lung): > 100 µM | TGI (SF-268 CNS): > 100 µM | TGI (HT29 colon): > 100 µM | TGI (SF-539 CNS): > 100 µM | TGI (NCI/ADR-RES ovarian): > 100 µM | TGI (OVCAR-3 ovarian): > 100 µM | TGI (LOX IMVI melanoma): > 100 µM | TGI (TK-10 renal): > 100 µM | TGI (MOLT-4 leukemia): > 100 µM | TGI (MALME-3M melanoma): > 100 µM

CC(C)(C)OC(=O)N(O)[C@@H]1CC[C@H](n2cnc3c(N)ncnc32)C1
TGI (EKVX NSCLC): > 100 µM | TGI (UACC-62 melanoma): > 100 µM | TGI (SK-OV-3 ovarian): > 100 µM | TGI (SNB-75 CNS): > 100 µM | TGI (NCI-H522 lung): > 100 µM | TGI (SR leukemia): > 100 µM | TGI (UO-31 renal): > 100 µM | TGI (BT-549 breast): > 100 µM | TGI (NCI-H23 lung): > 100 µM | TGI (SF-268 CNS): > 100 µM | TGI (HT29 colon): > 100 µM | TGI (SF-539 CNS): > 100 µM | TGI (NCI/ADR-RES ovarian): > 100 µM | TGI (OVCAR-3 ovarian): > 100 µM | TGI (LOX IMVI melanoma): > 100 µM | TGI (TK-10 renal): > 100 µM | TGI (MOLT-4 leukemia): > 100 µM | TGI (MALME-3M melanoma): > 100 µM
